# How the values were obtained:
# [1] = target: T1, wild-type (wt) DHFR from Plasmodium falciparum (Plasmodium falciparum, UniProt P13922, N108S/R59C); assay: Inhibition of wild-type pfDHFR (spectrophotometric, Ki); format: biochemical; conditions: Ki(wt) nM;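 further: Affinity-purified enzyme, initial reaction rates measured across a range of inhibitor concentrations, Ki obtained by nonlinear least-squares fitting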
# T1 construct: The Dihydrofolate Reductase Domain of Plasmodium falciparum Thymidylate Synthase-Dihydrofolate Reductase; made in house
# T1 sequence (P13922 10-228 R59C/N108S): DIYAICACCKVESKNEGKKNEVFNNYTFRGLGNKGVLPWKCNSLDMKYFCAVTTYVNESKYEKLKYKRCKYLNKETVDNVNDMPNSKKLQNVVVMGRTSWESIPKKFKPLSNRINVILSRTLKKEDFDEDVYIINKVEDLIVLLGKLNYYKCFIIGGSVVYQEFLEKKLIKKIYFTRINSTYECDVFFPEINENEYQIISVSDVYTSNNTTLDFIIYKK
# Protocol: (§1) For determination of the Ki values of a number of synthesized analogues, the assay reactions were initiated with affinity-purified enzyme (^˜0.005-0.01 U ml^−1), and the initial velocities in the presence of varying concentrations of inhibitors were analysed by non-linear least square fit using Kaleidagraph™ software.
# [2] = tested on: wild-type (TM4/8.2) strain of P. falciparum; assay: microbe, parasite or virus in culture; format: cell-based, Plasmodium falciparum; conditions: Plasmodium falciparum; wild-type strain TM4/8.2
# Protocol: Mol. Biochem. Parasitol. […] Science, 1976, 193, 673-675]. In vitro antimalarial activity was determined by using [^3H]-hypoxanthine incorporation method [Desjardins, R. E.; Canfield, C. J.; Haynes, J. D.; Chulay, J. D. Quantitative assessment of antimalarial activity in vitro by a semiautomated microdilution technique. Antimicrob Agents Chemother. 1979, 16, 710-718]. The drugs were initially dissolved in DMSO and diluted with the culture media. Aliquots (25 μl) of drug solution of different concentrations was placed in 96-well plate together with 200 μl of 1.5% cell suspension of parasitized erythrocytes containing 1-2% parasitemia. Final concentration of DMSO was 0.1% where there was no effect on the parasite growth. The mixtures were incubated in a 3% CO2 incubator at 37° C. After 24 h of incubation, 25 μl (0.25 μCi) of [^3H]-hypoxanthine were added to each well. The mixtures were further incubated under the same condition for 18-24 h. DNA of parasites was harvested onto glass filter paper (Unifilter, Packard, USA). The filters were dried and liquid scintillation fluid was added for radioactivity measurement in a 6-probe liquid scintillation-counter (Packard, USA).
# [3] = tested on: P. falciparum FCR3 (resistant strain containing the A16V.S108T DHFR mutant); assay: In vitro inhibition of P. falciparum FCR3; format: cell-based, Plasmodium falciparum; conditions: Plasmodium falciparum; in vitro, FCR3 strain; read-out: Pf-FCR3 ED50
# [4] = tested on: P. falciparum 3D7 (wild-type strain); assay: In vitro inhibition of P. falciparum 3D7; format: cell-based, Plasmodium falciparum; conditions: Plasmodium falciparum, 3D7 strain, read-out: Pf-3D7 ED50
# [5] = tested on: A16V.S108T mutant (mut) of DHFR from Plasmodium falciparum; assay: biochemical; conditions: resistance factor
# Protocol: as §1
# [6] = target: T2, A16V.S108T mutant (mut) of DHFR from Plasmodium falciparum (Plasmodium falciparum, UniProt A7UD81, A16V/S108T); assay: biochemical
# T2 construct: The Dihydrofolate Reductase Domain of Plasmodium falciparum Thymidylate Synthase-Dihydrofolate Reductase; made in house
# T2 sequence (A7UD81 1-231 A16V/S108T): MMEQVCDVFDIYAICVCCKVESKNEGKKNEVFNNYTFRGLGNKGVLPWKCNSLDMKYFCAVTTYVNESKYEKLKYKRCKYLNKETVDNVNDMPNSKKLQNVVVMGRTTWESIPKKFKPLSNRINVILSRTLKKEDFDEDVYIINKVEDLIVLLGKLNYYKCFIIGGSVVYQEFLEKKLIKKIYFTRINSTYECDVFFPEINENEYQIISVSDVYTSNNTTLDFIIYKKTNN
# Protocol: as §1
# [7] = target: T3, DHFR-TS from Trypanosoma cruzi (Trypanosoma cruzi, UniProt Q27793); assay: Inhibition of T. cruzi DHFR-TS (I50-derived Ki);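 on all read-outs here: enzymes were recombinant T. cruzi DHFR-TS and human DHFR, both expressed in E. coli and purified on a methotrexate affinity column, with dihydrofolate and NADPH as substrates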; format: biochemical; conditions: for Selectivity: human Ki / T. cruzi Ki
# T3 construct: pET 11c with the insertion of the complete ORF of the gene tc-dhfrts; made in house; host or cells: E. coli BL21 (DE3)
# T3 sequence (Q27793 whole entry): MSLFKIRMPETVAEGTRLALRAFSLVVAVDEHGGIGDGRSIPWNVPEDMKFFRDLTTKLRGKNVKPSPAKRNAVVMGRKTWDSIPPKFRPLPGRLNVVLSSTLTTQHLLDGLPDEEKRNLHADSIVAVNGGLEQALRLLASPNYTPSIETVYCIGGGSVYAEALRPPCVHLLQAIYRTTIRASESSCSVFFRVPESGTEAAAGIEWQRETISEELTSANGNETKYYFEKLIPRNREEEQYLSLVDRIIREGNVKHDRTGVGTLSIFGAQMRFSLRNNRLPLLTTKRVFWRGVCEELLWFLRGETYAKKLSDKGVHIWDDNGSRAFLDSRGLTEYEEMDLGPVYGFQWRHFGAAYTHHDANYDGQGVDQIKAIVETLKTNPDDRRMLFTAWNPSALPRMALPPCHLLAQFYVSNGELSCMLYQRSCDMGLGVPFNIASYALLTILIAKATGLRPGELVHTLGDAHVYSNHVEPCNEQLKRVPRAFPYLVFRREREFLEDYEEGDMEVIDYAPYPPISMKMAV
# human DHFR [8] = target: T4, human DHFR (Homo sapiens, UniProt P00374); assay: Inhibition of human DHFR (I50-derived Ki); format: biochemical; conditions: Human Ki (I50)(nM);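 further: recombinant human DHFR expressed in E. coli and purified by methotrexate affinity chromatography, enzyme activity followed spectrophotometrically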
# T4 construct: made in house; host or cells: E. coli M15
# T4 sequence (P00374 1-187): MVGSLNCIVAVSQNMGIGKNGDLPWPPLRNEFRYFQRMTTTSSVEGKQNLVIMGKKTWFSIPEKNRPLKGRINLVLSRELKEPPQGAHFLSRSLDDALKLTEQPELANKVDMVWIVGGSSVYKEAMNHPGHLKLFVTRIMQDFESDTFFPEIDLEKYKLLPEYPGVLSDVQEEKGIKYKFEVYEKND
# Protocol: (§2) Folic acid and NADPH, were purchased from Sigma. Dihydrofolate was prepared from folic acid dithionate reduction. Methotrexate (MTX) was from Lederle Laboratories. MTX sepharose CL-6B was prepared according to the protocol described by Dann. et al. IPTG came from Boehringer Manheim. The expression system used for recombinant human DHFR production, which includes the plasmid PB-E1/RB SII, SphI-HDHFR expressed in E. coli M15, was supplied by Santi, D. V (Department of Biochemistry and Biophysics and Department of Pharmaceutical Chemistry, University of California). Recombinant T. Cruzi DHFR-TS was produced using the system pET 11c with the insertion of the complete ORF of the gene tc-dhfrts. The resulting plasmid was called pET DT.
# (§3) Human and T.cruzi DHFR were produced using inducible expression systems. For human DHFR, fresh overnight cultures of E. coli M15, transformed with the plasmid, pB-E1/RB SII, SphI-HDHFR, were grown in LB and 0.1 mg/ml ampicillin medium at 28° C. For T.cruzi DHFR-TS, cultures of E. coli, BL21 (DE3) transformed with the plasmid pETDT system were grown at 37° C. The same purification protocol was used for both systems. When OD600 was at 0.8, cells pellets were collected by centrifugation, suspended in 50 ml of LB medium, containing 0.1 mg/ml of ampicillin. 10 ml of this preinocule was added to 2 litres of LB medium. Cultures were shaken at 28° C. or 37° C. (for human and T. cruzi DHFR respectively) and induction with IPTG ImM was performed when OD600 reached 0.8. After IPTG induction, cells were grown overnight in a shaker at 28° C. or 5 hours at 28° C. or 37° C. (for human and T. cruzi DHFR respectively) and then harvested by centrifugation.
# (§4) Cell pellets were suspended in sonication buffer (2× TES DHFR:TES 100 mM, 2-mercaptoethanol 150 mM, EDTA 2 mM pH=7) containing protease inhibitors.
# (§5) Crude extract was circulated through the MTX-Sepharose column at 4° C. at a flow rate of 0.2 ml/min until the protein was bound to the resin. The column was washed with an excess of buffer B (KH2PO410 mM pH 7, KC1 1M). Protein was eluted at 0.2 min/ml with an elution buffer (100 mM TES, 10 mM DTT, 2 mM EDTA, DHF 8.5 mM), the elution profile was collected in 1 ml fractions using a Pharmacia LKB Frac 200 collector. Finally, the protein was desalted using molecular size exclusion chromatography in a Pharmacia G-25 column. Fractions containing DHFR activity were pooled and concentrated by ultrafiltration using centripreps Amicon.
# (§6) The purity of the protein preparation was assessed by detection of a single band of the correct molecular weight stained with coomasie blue following a 12% SDS-PAGE. Protein concentration was determined by the method of Bradford using a BSA as a standard. DHFR activity was measured spectrophotometrically by monitoring the decrease in absorbance at 340 mm. […] One unit of enzyme, is defined as the amount of enzyme which produces 1 nmol of product per min using ε of 12300M^−1 at 340 nm.
# (§7) Inhibition of dihydrofolate reductases by 1,2-dihydro-1,3,5 triazines was analysed with T. cruzi and human DHFR.
# (§8) DHFR assays contained 30 mM dihydrofolate, 0.1 mM NADPH, 50 mM TES buffer pH 7, 75 mM 2-mercaptoethanol and specified amounts of inhibitors. The reaction was initiated by addition of 2.8 or 2.3 units of T. cruzi and human, respectively, and monitored at 340 nm.
# (§9) Selective inhibition of dihydrofolate reductase by 1,2-dihydro-1,3,5-triazines was analysed with T. cruzi and human DHFR. DHFR assays contained 30 μM dihydrofolate, 0.1 mM NADPH, 50 mM TES buffer pH 7, 75 mM β-mercaptoethanol and specified amounts of inhibitors. The reaction was initiated by addition of 2.8 or 2.3 units of T. cruzi and human enzyme, respectively, and monitored at 340 nm. […] KiI 50=[I]0.5/((1+[S])/Km)
# human DHFR [9] = assay: Inhibition of human DHFR (I50-derived Ki); format: biochemical;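 further: recombinant human DHFR expressed in E. coli and purified by methotrexate affinity chromatography, enzyme activity followed spectrophotometrically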
# Protocol: as §2, §3, §4, §5, §6, §7, §8, §9
Structure (SMILES),Ki [1] [nM],IC50 [2] [nM],IC50 [3] [µg/mL],IC50 [4] [µg/mL],Ki(mut)/Ki(wt) [5],Ki [6] [nM],Ki [7] [nM],Selectivity [7],Ki (human DHFR [8]; human DHFR) [nM],Ki (human)/Ki (P. falc. mut) (human DHFR [9]),Ki (human)/Ki (P. falc. wt) (human DHFR [9]),Ki (human)/Ki (T. cruzi) (human DHFR [9]),Ki (human DHFR [8]) [nM]
NC1=NC(c2cccc(OCc3ccccc3)c2)N(c2ccc(Cl)cc2)C(N)=N1 (stereo not drawn) [(Ia) R2=m-benzyloxyphenyl],0.7,832,0.62,0.18,8.8,6.2,,,,,,,
NC1=NC(c2cccc(OCc3ccccc3)c2)N(c2cccc(Cl)c2)C(N)=N1 (stereo not drawn) [(Ib) R2=3-benzyloxyphenyl],2.3 ± 0.5,3970,0.019,0.45,1.4,3.2 ± 0.2,12,3.8,46,,,,
"NC1=NC(c2cccc(Oc3ccccc3)c2)N(c2ccc(Cl)cc2)C(N)=N1 (stereo not drawn) [(Ia) R2=m-phenoxyphenyl, 1-p-chlorophenyl-2-m-phenoxyphenyl-4,6-diamino-1,2-dihydro-1,3,5-triazine]",0.5,367,0.32,0.28,5.4,2.7,21,9,190,,,,
CC(C)(C)c1ccc(Oc2cccc(C3N=C(N)N=C(N)N3c3ccc(Cl)cc3)c2)cc1 (stereo not drawn) [(Ia) R2=3-(4-t-butylphenoxy)phenyl],1.7,4120,0.26,0.75,5.8,9.9 ± 1.5,112,7,770,,,,
"CCOc1ccc(C2N=C(N)N=C(N)N2c2ccc(Cl)cc2)cc1 (stereo not drawn) [(Ia) R2=p-ethoxyphenyl, 1-p-chlorophenyl-2-p-ethoxyphenyl-4-6-diamino-1,2-dihydro-1,3,5-triazine]",1.5 ± 0.2,181,,,24.3,36 ± 6,70,25,1730,48,1153,24.7,
"Cl.NC1=NCN(c2ccc(Cl)cc2)C(N)=N1 [(Ia) R2=H, 1-(4′-Chlorophenyl)-4,6-diamino-1,2-dihydro-1,3,5-triazine hydrochloride]",24.4 ± 4.3,952,0.13,0.04,26,649 ± 77,16,76,,1.9,49.7,75.7,1210
COc1ccc(Oc2cccc(C3N=C(N)N=C(N)N3c3ccc(Cl)cc3)c2)cc1 (stereo not drawn) [(Ia) R2=3-(4-methoxyphenoxyl)phenyl],0.7,2880,1.25,5.19,9.4,6.6,48,17,830,,,,
"CC(C)c1ccc(C2N=C(N)N=C(N)N2c2ccc(Cl)cc2)cc1 (stereo not drawn) [(Ia) R2=p-isopropylphenyl, 1-p-chlorophenyl-2-p-isopropylphenyl-4,6-diamino-1,2-dihydro-1,3,5-triazine]",1.9 ± 0.6,973,,,8.0,15.2 ± 1.6,60,167,10000,661,5289,167,
NC1=NC(c2ccc(OCc3ccccc3)cc2)N(c2ccc(Cl)cc2)C(N)=N1 (stereo not drawn) [(Ia) R2=p-benzyloxyphenyl],0.6,107,,0.26,7.3,4.4,13,85,1110,,,,
CC(C)(C)c1ccc(Oc2cccc(C3N=C(N)N=C(N)N3c3cccc(Cl)c3)c2)cc1 (stereo not drawn) [(Ib) R2=3-(4-t-butylphenoxy)phenyl],7.7 ± 0.5,5040,0.47,> 0.3,0.7,5.6 ± 0.9,,,,,,,
"NC1=NC(c2ccc(Oc3ccccc3)cc2)N(c2ccc(Cl)cc2)C(N)=N1 (stereo not drawn) [(Ia) R2=p-phenoxyphenyl, 1-p-chlorophenyl-2-p-phenoxyphenyl-4,6-diamino-1,2-dihydro-1,3,5-triazine]",0.4,121,0.2,0.07,9.5,3.8,3,376,1130,,,,
"CCCCOc1ccc(C2N=C(N)N=C(N)N2c2ccc(OCc3ccccc3)cc2)cc1 (stereo not drawn) [1-p-benzyloxyphenyl-2-p-n-butoxyphenyl-4,6-diamino-1,2-dihydro-1,3,5-triazine]",0.8 ± 0.1,384,,,8.2,6.6 ± 0.6,49,4.1,203,31,253,4.1,
"CCCCOc1ccc(C2N=C(N)N=C(N)N2c2ccc(Cl)cc2)cc1 (stereo not drawn) [(Ia) R2=p-butyloxyphenyl, 1-p-chlorophenyl-2-p-n-butyloxyphenyl-4,6-diamino-1,2-dihydro-1,3,5-triazine]",1 ± 0.1,287,0.091,0.14,5.0,5,26,15,400,80,400,15.3,
NC1=NC(c2ccc(-c3ccccc3)cc2)N(c2ccc(Cl)cc2)C(N)=N1 (stereo not drawn) [(Ia) R2=4-biphenyl],1.3 ± 0.1,621,0.68,2.2,6.5,8.5,,,,,,,
NC1=NC(c2ccc(F)cc2)N(c2ccc(Cl)cc2)C(N)=N1 (stereo not drawn) [(Ia) R2=p-fluorophenyl],8.6 ± 1.4,359,,,15.1,130 ± 17,1010,10,10600,81,1227,10.4,

# — patent US20030203908A1, “Dihydrofolate reductase inhibitors” (priority 2000, published 2003)
